IC50 data for 23 compounds are collected here from patent US20150005288A1, “SUBSTITUTED PHENYLIMIDAZOPYRAZOLES AND USE THEREOF” (Bayer Intellectual Property GmbH, priority 2012, published 2015).

For the test, the target named is T1, intracellular domain of human Tie2 (GST fusion protein) (Homo sapiens, UniProt Q02763).
T1 construct: intracellular domain of human Tie2 (amino acids 776-1124); made in house; host or cells: Baculovirus-infected insect cells (Hi5)
T1 sequence (Q02763 776-1124): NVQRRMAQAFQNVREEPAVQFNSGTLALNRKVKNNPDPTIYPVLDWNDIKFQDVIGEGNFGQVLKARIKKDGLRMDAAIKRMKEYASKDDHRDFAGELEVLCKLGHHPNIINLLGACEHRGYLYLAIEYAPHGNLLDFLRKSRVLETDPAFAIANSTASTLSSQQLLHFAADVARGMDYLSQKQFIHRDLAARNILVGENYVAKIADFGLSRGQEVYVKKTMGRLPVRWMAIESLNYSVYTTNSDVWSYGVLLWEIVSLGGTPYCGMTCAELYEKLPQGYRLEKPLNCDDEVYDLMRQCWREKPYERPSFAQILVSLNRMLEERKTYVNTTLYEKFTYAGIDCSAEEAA
As to the kind of experiment: Tie2 kinase assay (Tie2-TR-FRET). Format: biochemical. Conditions: ATP concentration 1 mM, in some cases means of several independent determinations. The protocol: The Tie2-inhibitory activity of the substances according to the invention was determined with the aid of one of the Tie2-TR-FRET assays described in the sections below at an ATP concentration of 1 mM (TR-FRET=Time-Resolved Fluorescence Resonance Energy Transfer):
The enzyme used was a recombinant fusion protein of glutathione S-transferase (GST) and the intracellular domain of human Tie2 (amino acids 776-1124) which was expressed in Baculovirus-infected insect cells (Hi5) and was purified by affinity chromatography on glutathione-Sepharose. Alternatively, it is also possible to use commercially available GST-His6-Tie2 fusion protein (ProQinase GmbH, Freiburg im Breisgau, Germany). The substrate used for the kinase reaction was the biotinylated peptide biotin-Ahx-[…] (C-terminus in amide form) which is commercially available (for example from Biosyntan, Berlin, Germany).
For the assay, 50 nl of a 100-fold concentrated solution of the respective test substance in DMSO were pipetted into a black low-volume 384-well microtitre plate (Greiner Bio-One, Frickenhausen, Germany) 2 μl of a solution of the Tie2 fusion protein in assay buffer [50 mM HEPES/HCl pH 7, 10 mM MgCl2, 2.5 mM MnCl2, 1 mM dithiothreitol, 0.01% (v/v) Nonidet P-40, 0.1% (w/v) bovine serum albumin (BSA), 1× Complete EDTA-free protease inhibitor mixture (Roche)] were added, and the mixture was incubated for 15 min to allow pre-binding of the substance to the enzyme prior to the kinase reaction. The kinase reaction was then started by adding 3 μl of a solution of adenosine triphosphate (ATP, 1.67 mM→final concentration in 5 μl assay volume=1 mM) and substrate (1.67 μM→final concentration in 5 μl assay volume=1 μM) in assay buffer, and the resulting mixture was incubated for a reaction time of 60 min at 22° C. The concentration of the Tie2 fusion protein was adapted to the respective activity of the enzyme and adjusted such that the assay was carried out in the linear range. Typical concentrations were in the range of 30 ng/ml.
The reaction was stopped by addition of 5 μl of a solution of TR-FRET detection reagents [200 nM streptavidin-XL665 and 2 nM PT66-Eu chelate, a europium chelate-labelled anti-phosphotyrosine antibody (Perkin-Elmer); alternatively, it is also possible to use PT66-Tb cryptate (Cisbio Bioassays, Codolet, France)] in aqueous EDTA solution[90 mM EDTA, 0.28% (w/v) bovine serum albumin (BSA) in 50 mM HEPES pH 7.5]. The resulting mixture was incubated at 22° C. for 1 h to allow formation of the complex of the biotinylated phosphorylated substrate and the detection reagents. The amount of phosphorylated substrate was then determined by measuring the resonance energy transfer from PT66-Eu chelate to streptavidin-XL665. To this end, the fluorescence emissions at 620 nm and 665 nm after excitation at 350 nm were measured in a TR-FRET measuring instrument (for example Viewlux, Perkin-Elmer). The ratio of the emissions at 665 nm and at 620 nm was taken as a measure of the amount of phosphorylated substrate.
Usually, the test substance in question was tested on the same microtitre plate at […] different concentrations in the range from 20 μM to 0.073 nM (for example at 20 μM, 5.7 μM, 1.6 μM, 0.47 μM, 0.13 μM, 38 nM, 11 nM, 3.1 nM, 0.89 nM, 0.25 nM and 0.073 nM) in duplicate for each concentration. The dilution series were prepared prior to the assay at the stage of the 100-fold concentrated solution by serial dilution (the exact concentrations may vary depending on the pipettors used in each case). IC50 values were calculated using a 4-parameter fit, with the aid of inhouse software.
Table 1 below lists the IC50 values from this assay for individual working examples (in some cases as means of several independent individual determinations): […]
Background: In TR-FRET formats the signal depends on donor and acceptor labels being close together.
In the case of `Cc1ccc(S(F)(F)(F)(F)F)cc1C(=O)Nc1ccc(C)c(-n2ccn3nc(-c4cccnc4)cc23)c1` [Example 91, 2-Methyl-N-{4-methyl-3-[6-(pyridin-3-yl)-1H-imidazo[1,2-b]pyrazol-1-yl]phenyl}-5-(pentafluoro-λ^6-sulphanyl)benzamide], the concentration for half-maximal inhibition (IC50) (commonly the concentration needed to halve the response being measured) is 215 nM.

Take `Cc1cc(C)c(-n2ccn3nc(-c4cncnc4)cc23)cc1NC(=O)c1cccc(S(F)(F)(F)(F)F)c1` [Example 164, N-{2,4-Dimethyl-5-[6-(pyrimidin-5-yl)-1H-imidazo[1,2-b]pyrazol-1-yl]phenyl}-3-(pentafluoro-λ^6-sulphanyl)benzamide]: half-maximal inhibition (IC50) required 0.4 nM. Compound `Cc1cc(C)c(-n2ccn3nc(-c4cccnc4)cc23)cc1NC(=O)c1cccc(C(C)(C)F)c1` [Example 142, N-{2,4-Dimethyl-5-[6-(pyridin-3-yl)-1H-imidazo[1,2-b]pyrazol-1-yl]phenyl}-3-(2-fluoropropan-2-yl)benzamide] showed an IC50 of 0.9 nM. For `Cc1ccc(NC(=O)c2cc(C#N)cc(S(F)(F)(F)(F)F)c2)cc1-n1ccn2nc(-c3ccnnc3)cc12` [Example 168, 3-Cyano-N-{4-methyl-3-[6-(pyridazin-4-yl)-1H-imidazo[1,2-b]pyrazol-1-yl]phenyl}-5-(pentafluoro-λ^6-sulphanyl)benzamide], 726 nM corresponded to half-maximal inhibition (IC50). In the case of `Cc1ccc(NC(=O)c2cc(C(F)(F)F)cc(C(F)(F)F)c2)cc1-n1ccn2nc(-c3cccnc3)cc12` [Example 43, N-{4-Methyl-3-[6-(pyridin-3-yl)-1H-imidazo[1,2-b]pyrazol-1-yl]phenyl}-3,5-bis(trifluoromethyl)-benzamide], the IC50 stood at 56 nM. For `Cc1ccc(-n2ccn3nc(-c4cccnc4)cc23)cc1NC(=O)c1cc(C#N)cc(C(C)(C)C)c1` [Example 79], the half-maximal inhibitory concentration (IC50) was found to be 26 nM. The same measure for `COc1cc(C(=O)Nc2ccc(C)c(-n3ccn4nc(-c5cccnc5)cc34)c2)cc(S(F)(F)(F)(F)F)c1` [Example 21, 3-Methoxy-N-{4-methyl-3-[6-(pyridin-3-yl)-1H-imidazo[1,2-b]pyrazol-1-yl]phenyl}-5-(pentafluoro-λ^6-sulphanyl)benzamide]: 2.1 nM. The same measure for `Cc1ccc(NC(=O)c2cc(C(C)C)ccc2O)cc1-n1ccn2nc(-c3cccnc3)cc12` [Example 53, 2-Hydroxy-N-{4-methyl-3-[6-(pyridin-3-yl)-1H-imidazo[1,2-b]pyrazol-1-yl]phenyl}-5-(propan-2-yl)benzamide]: 340 nM; for `Cc1ccc(NC(=O)c2cccc(S(F)(F)(F)(F)F)c2)cc1-n1ccn2nc(-c3cnccn3)cc12` [Example 84, N-{4-Methyl-3-[6-(pyrazin-2-yl)-1H-imidazo[1,2-b]pyrazol-1-yl]phenyl}-3-(pentafluoro-λ^6-sulphanyl)benzamide]: 220 nM; for `Cc1ccc(NC(=O)c2cc(OCCCN)cc(S(F)(F)(F)(F)F)c2)cc1-n1ccn2nc(-c3cccnc3)cc12` [Example 23, 3-(3-Aminopropoxy)-N-{4-methyl-3-[6-(pyridin-3-yl)-1H-imidazo[1,2-b]pyrazol-1-yl]phenyl}-5-(pentafluoro-λ^6-sulphanyl)benzamide]: 0.3 nM. On to `Cc1c(Cl)cc(NC(=O)c2cccc(S(F)(F)(F)(F)F)c2)cc1-n1ccn2nc(-c3cccnc3)cc12` [Example 106, N-{3-Chloro-4-methyl-5-[6-(pyridin-3-yl)-1H-imidazo[1,2-b]pyrazol-1-yl]phenyl}-3-(pentafluoro-λ^6-sulphanyl)benzamide], for which the IC50 is 110 nM. As for `Cc1ccc(NC(=O)c2cccc(-c3cccc(C#N)c3)c2)cc1-n1ccn2nc(-c3cccnc3)cc12` [Example 54, 3′-Cyano-N-{4-methyl-3-[6-(pyridin-3-yl)-1H-imidazo[1,2-b]pyrazol-1-yl]phenyl}biphenyl-3-carboxamide], half-maximal inhibition (IC50) required 670 nM. For `Cc1ccc(NC(=O)c2cc(C#N)cc(S(F)(F)(F)(F)F)c2)cc1-n1ccn2nc(-c3cccnc3)c(F)c12` [Example 159, 3-Cyano-N-{3-[7-fluoro-6-(pyridin-3-yl)-1H-imidazo[1,2-b]pyrazol-1-yl]-4-methylphenyl}-5-(pentafluoro-λ^6-sulphanyl)benzamide], the half-maximal inhibitory concentration (IC50) is 10 nM. Regarding `Cc1ccc(NC(=O)c2cc(N3CCCC3)ccc2Cl)cc1-n1ccn2nc(-c3cccnc3)cc12` [Example 57, 2-Chloro-N-{4-methyl-3-[6-(pyridin-3-yl)-1H-imidazo[1,2-b]pyrazol-1-yl]phenyl}-5-(pyrrolidin-1-yl)benzamide], the half-maximal inhibitory concentration (IC50) amounted to 995 nM.

Regarding `Cc1cc(C)c(-n2ccn3nc(-c4cccnc4)cc23)cc1NC(=O)c1cccc(C(C)(C)O)c1` [Example 141, N-{2,4-Dimethyl-5-[6-(pyridin-3-yl)-1H-imidazo[1,2-b]pyrazol-1-yl]phenyl}-3-(2-hydroxypropan-2-yl)benzamide], the IC50 amounted to 62 nM. As to `Cc1ccc(NC(=O)c2cc(-n3ccnc3C)cc(C(C)(C)C)c2)cc1-n1ccn2nc(-c3cccnc3)cc12` [Example 47, 3-tert-Butyl-5-(2-methyl-1H-imidazol-1-yl)-N-{4-methyl-3-[6-(pyridin-3-yl)-1H-imidazo[1,2-b]-pyrazol-1-yl]phenyl}benzamide], the IC50 is 0.3 nM. Turning to `CCOCCOc1cccc(C(=O)Nc2cc(-n3ccn4nc(-c5cccnc5)cc34)c(C)cc2C)c1` [Example 135, N-{2,4-Dimethyl-5-[6-(pyridin-3-yl)-1H-imidazo[1,2-b]pyrazol-1-yl]phenyl}-3-(2-ethoxyethoxy)-benzamide], half-maximal inhibition (IC50) was put at 607 nM. Compound `Cc1cc(C)c(-n2ccn3nc(-c4cccnc4)cc23)cc1NC(=O)c1cccc(OCCN(C)C)c1` [Example 137, 3-[2-(Dimethylamino)ethoxy]-N-{2,4-dimethyl-5-[6-(pyridin-3-yl)-1H-imidazo[1,2-b]pyrazol-1-yl]phenyl}benzamide] returned an IC50 of 409 nM. The compound `Cc1cc(C)c(-n2ccn3nc(-c4cccnc4)cc23)cc1NC(=O)c1cc(Cl)cc(S(F)(F)(F)(F)F)c1` [Example 108, 3-Chloro-N-{2,4-dimethyl-5-[6-(pyridin-3-yl)-1H-imidazo[1,2-b]pyrazol-1-yl]phenyl}-5-(pentafluoro-λ^6-sulphanyl)benzamide] displayed an IC50 of 0.7 nM. With `Cc1cc(C)c(-n2ccn3nc(-c4cccnc4)cc23)cc1NC(=O)c1cc(C(C)(C)O)cc(S(F)(F)(F)(F)F)c1` [Example 148, N-{2,4-Dimethyl-5-[6-(pyridin-3-yl)-1H-imidazo[1,2-b]pyrazol-1-yl]phenyl}-3-(2-hydroxypropan-2-yl)-5-(pentafluoro-λ^6-sulphanyl)benzamide] the figure was 0.4 nM; with `Cc1cc(C)c(-n2ccn3nc(-c4cn[nH]c4)cc23)cc1NC(=O)c1cc(C#N)cc(S(F)(F)(F)(F)F)c1` [Example 86, 3-Cyano-N-{2,4-dimethyl-5-[6-(1H-pyrazol-4-yl)-1H-imidazo[1,2-b]pyrazol-1-yl]phenyl}-5-(pentafluoro-λ^6-sulphanyl)benzamide], 1.1 nM.

`Cc1ccc(NC(=O)c2cc(Cl)cc(S(F)(F)(F)(F)F)c2)cc1-n1ccn2nc(-c3cccnc3)cc12` [Example 27, 3-Chloro-N-{4-methyl-3-[6-(pyridin-3-yl)-1H-imidazo[1,2-b]pyrazol-1-yl]phenyl}-5-(pentafluoro-λ^6-sulphanyl)benzamide] yielded an IC50 of 3.1 nM. With `Cc1ccc(NC(=O)c2cccc(C(C)(C)C)c2)cc1-n1ccn2nc(-c3cn[nH]c3)cc12` [Example 7, 3-tert-Butyl-N-{4-methyl-3-[6-(1H-pyrazol-4-yl)-1H-imidazo[1,2-b]pyrazol-1-yl]phenyl}-benzamide] the figure was 105 nM.
